Assay results reported in paper PMC6407913, “DREADD Agonist 21 Is an Effective Agonist for Muscarinic-Based DREADDs in Vitro and in Vivo” (ACS Pharmacology & Translational Science, 2018).
Where “and” joins values, the source holds several entries; their conditions need not be identical. Equal values may be shown once. Read-outs that look alike come from different tables or passages of the source.

Columns and labels:
plasma protein binding = type: in vitro ADME
BZP = test: NIMH PDSP radioligand binding, membranes
Protocol: (§1) Radioligand binding assays with membrane preparations to determine binding affinity were carried out as outlined before[540] and by the National Institute of Mental Health’s Psychoactive Drug Screening Program (NIMH PDSP) (https://pdsp.unc.edu/), Contract # HHSN-271–2013–00017-C. The NIMH PDSP is Directed by B.L.R. at the University of North Carolina at Chapel Hill, Chapel Hill, NC, and Project Officer Jamie Driscoll at NIMH, Bethesda, MD.

Alpha2A = target: T1, Alpha2A (Homo sapiens, UniProt P08913); test: NIMH PDSP radioligand binding, membranes
T1 construct: NIMH PDSP
T1 sequence (P08913 whole entry): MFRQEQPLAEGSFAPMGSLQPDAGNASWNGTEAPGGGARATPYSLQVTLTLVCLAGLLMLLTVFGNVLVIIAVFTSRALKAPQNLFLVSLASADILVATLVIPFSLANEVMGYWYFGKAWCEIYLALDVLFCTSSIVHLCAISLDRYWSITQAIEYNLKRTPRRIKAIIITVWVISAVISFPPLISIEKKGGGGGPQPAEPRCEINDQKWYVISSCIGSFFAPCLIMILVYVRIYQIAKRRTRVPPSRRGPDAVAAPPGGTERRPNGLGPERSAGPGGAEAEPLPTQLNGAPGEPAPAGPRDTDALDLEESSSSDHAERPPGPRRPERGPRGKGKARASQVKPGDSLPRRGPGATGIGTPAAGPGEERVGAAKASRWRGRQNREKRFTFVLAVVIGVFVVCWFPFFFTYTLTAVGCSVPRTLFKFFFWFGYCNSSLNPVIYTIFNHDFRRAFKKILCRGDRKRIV
Protocol: as §1

Alpha 1B = target: T2, Alpha 1B (Homo sapiens, UniProt P35368); test: NIMH PDSP radioligand binding, membranes
T2 construct: NIMH PDSP
T2 sequence (P35368 1-520): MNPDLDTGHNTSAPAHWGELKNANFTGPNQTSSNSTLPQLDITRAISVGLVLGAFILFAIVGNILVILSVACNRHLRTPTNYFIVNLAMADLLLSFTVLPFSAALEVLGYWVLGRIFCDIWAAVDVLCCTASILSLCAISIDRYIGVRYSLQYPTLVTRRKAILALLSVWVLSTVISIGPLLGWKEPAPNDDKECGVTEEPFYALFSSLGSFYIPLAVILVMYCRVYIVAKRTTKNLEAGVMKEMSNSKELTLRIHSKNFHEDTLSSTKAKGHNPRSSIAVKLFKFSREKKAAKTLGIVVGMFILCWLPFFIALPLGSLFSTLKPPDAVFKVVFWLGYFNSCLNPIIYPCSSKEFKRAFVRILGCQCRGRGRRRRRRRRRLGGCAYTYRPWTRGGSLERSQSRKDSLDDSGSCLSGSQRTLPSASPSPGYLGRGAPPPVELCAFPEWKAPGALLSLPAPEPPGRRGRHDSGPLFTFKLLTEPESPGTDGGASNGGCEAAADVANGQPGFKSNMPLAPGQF
Protocol: as §1

Alpha1A = target: T3, Alpha1A (Homo sapiens, UniProt P35348); test: NIMH PDSP radioligand binding, membranes
T3 construct: NIMH PDSP
T3 sequence (P35348 1-466): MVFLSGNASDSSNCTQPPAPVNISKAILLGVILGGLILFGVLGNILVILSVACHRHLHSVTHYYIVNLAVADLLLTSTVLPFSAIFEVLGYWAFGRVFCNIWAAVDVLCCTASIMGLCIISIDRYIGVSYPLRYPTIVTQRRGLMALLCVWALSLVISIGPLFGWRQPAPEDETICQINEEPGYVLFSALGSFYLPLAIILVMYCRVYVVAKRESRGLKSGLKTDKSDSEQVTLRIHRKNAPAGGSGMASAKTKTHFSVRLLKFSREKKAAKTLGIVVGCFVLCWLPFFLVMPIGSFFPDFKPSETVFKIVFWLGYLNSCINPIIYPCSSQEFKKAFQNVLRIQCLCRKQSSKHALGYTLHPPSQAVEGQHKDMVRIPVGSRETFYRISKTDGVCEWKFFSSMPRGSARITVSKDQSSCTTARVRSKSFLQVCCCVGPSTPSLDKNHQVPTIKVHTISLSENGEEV
Protocol: as §1

5-HT1E = 5-HT1E (Homo sapiens, UniProt P28566); test: NIMH PDSP radioligand binding, membranes
5-HT1E, sequence (P28566 whole entry, species assumed): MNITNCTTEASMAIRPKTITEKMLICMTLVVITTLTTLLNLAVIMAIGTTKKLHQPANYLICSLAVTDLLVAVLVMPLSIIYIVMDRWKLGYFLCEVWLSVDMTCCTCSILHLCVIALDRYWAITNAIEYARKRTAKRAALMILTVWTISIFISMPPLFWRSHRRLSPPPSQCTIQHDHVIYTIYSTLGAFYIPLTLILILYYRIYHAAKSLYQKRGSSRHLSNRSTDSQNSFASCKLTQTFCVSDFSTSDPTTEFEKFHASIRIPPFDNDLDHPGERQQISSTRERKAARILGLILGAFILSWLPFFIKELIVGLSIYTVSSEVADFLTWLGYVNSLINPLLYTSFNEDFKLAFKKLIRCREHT
Protocol: as §1

hM3Dq = target: T4, hM3Dq (Homo sapiens, UniProt P20309, A239G/Y149C); test: Gq-mediated calcium release (FLIPR) assay; type: cell-based; conditions: CHO cells, mean ± SEM, read-out: pEC50 calcium mobilization (converted)
T4 construct: expressed in transfected cells
T4 sequence (P20309 whole entry Y149C/A239G): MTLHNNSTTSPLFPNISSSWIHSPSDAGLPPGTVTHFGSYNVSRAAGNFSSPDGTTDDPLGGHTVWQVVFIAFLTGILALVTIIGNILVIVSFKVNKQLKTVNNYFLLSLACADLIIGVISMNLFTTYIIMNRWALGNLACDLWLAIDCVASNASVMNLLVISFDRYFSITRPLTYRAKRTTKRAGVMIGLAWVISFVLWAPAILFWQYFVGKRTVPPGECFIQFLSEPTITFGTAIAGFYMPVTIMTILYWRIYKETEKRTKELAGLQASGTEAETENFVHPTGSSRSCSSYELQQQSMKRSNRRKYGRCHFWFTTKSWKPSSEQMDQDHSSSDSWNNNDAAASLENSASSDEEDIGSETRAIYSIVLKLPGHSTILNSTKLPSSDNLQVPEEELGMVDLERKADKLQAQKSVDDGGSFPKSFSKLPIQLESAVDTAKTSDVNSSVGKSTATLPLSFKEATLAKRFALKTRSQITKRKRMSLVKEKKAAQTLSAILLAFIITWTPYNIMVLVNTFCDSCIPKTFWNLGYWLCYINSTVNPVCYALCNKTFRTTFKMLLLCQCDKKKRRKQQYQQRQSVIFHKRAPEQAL

[1] = target: T5, human H4 histamine receptors (Homo sapiens, UniProt Q9H3N8); test: Gi1 BRET dissociation assay, antagonist mode; type: cell-based; conditions: human H4, HEK293T cells, vs histamine
T5 construct: expressed in transfected cells; host or cells: HEK293T, transient (pcDNA plasmids)
T5 sequence (Q9H3N8 whole entry): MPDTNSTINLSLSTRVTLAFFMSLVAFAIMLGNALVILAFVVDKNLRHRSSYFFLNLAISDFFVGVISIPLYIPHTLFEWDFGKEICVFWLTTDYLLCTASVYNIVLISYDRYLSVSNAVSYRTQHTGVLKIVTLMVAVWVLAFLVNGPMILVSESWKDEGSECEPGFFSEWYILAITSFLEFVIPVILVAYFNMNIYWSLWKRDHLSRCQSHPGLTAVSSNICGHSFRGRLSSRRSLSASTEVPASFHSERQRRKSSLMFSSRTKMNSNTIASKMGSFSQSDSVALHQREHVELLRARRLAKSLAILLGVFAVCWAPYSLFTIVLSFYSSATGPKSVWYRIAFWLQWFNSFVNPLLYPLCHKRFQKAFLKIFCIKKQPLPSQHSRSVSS
Protocol: (§2) Separate pcDNA plasmids containing the sequence for Gβ1, Gγ2-GFP^2, Gi1-Rluc8, and either human dopamine D2 receptor or histamine H4 receptor were cotransfected into HEK293T cells (in 10 cm plates) at 1.5 μg/construct using Transit-2020 (Mirus) at a ratio of 3 μL/μg Transit/DNA. The next day, cells were harvested and plated in DMEM containing 1% dFBS in polylysine-coated 96-well plates (Greiner) at 50 000 cells per well. Sixteen hours later, media was aspirated from each well, and cells were subsequently rinsed with 60 μL of assay buffer (20 mM HEPES, 1× Hanks Buffered Saline Solution, pH 7.4). Before drug treatment, 60 μL of fresh assay buffer was added to each well followed by 10 μL of 50 uM Coelenterazine 400a (Prolume). Luminescence and fluorescence were measured using an LB940 Mithras (Berthold technologies), and BRET was computed as the ratio of GFP^2 fluorescence to luciferase signal.
(§3) In the absence of C21 ([B] = 0), this equation becomes the standard four-parameter logistic equation for fitting agonist concentration–response data.

D2 = D2 (Homo sapiens, UniProt P14416); test: Gi1 BRET dissociation assay, antagonist mode; type: cell-based; conditions: human D2, HEK293T cells, vs quinpirole
D2, sequence (P14416 whole entry): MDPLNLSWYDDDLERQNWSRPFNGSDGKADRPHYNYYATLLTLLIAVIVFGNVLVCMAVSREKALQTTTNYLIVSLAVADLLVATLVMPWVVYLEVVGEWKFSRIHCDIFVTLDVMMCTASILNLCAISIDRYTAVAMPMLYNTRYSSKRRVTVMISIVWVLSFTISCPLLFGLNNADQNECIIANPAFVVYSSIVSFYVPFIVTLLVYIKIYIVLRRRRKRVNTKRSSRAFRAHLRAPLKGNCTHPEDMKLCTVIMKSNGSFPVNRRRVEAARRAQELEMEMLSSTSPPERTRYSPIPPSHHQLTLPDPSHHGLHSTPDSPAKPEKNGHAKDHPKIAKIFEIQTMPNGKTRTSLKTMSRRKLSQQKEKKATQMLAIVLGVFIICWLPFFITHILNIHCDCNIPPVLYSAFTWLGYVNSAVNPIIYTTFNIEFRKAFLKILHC
Protocol: as §2, §3

hM4Di = target: T6, hM4Di (Homo sapiens, UniProt P08173, A203G/Y113C); test: whole-cell [3H]NMS competition binding
T6 sequence (P08173 1-479 Y113C/A203G): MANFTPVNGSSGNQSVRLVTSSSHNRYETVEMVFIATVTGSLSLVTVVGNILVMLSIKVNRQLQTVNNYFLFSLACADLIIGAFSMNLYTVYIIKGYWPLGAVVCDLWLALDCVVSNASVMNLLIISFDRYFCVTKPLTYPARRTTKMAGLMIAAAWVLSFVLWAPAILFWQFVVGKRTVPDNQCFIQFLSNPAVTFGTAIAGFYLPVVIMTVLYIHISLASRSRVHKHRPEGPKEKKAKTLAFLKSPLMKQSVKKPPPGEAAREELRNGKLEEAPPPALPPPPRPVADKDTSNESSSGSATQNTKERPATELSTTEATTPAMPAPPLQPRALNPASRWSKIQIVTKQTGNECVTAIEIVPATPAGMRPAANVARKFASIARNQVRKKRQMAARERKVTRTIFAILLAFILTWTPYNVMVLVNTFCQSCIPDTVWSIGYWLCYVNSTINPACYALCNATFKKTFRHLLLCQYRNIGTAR

[2] = read-out: Ki #1-#5 (individual assays)

c1ccc2c(c1)N=C(N1CCNCC1)c1ccccc1N2 [C21, 11-(1-piperazinyl)-5H-dibenzo[b,e][1,4]diazepine]
fraction unbound (plasma protein binding): 0.049 | log Ki (individual assays) (BZP): 5.27 and 5.61 and 5.12 and 5.10 and 5.33 | pKi (mean) (BZP): 5.29 | Ki (BZP; read-out: Ki): 5.18 µM | Ki (BZP; [2]): 4.72 µM and 5.31 µM and 2.44 µM and 7.61 µM and 7.99 µM | Ki (Alpha2A; read-out: Ki): 1.77 µM | Ki (Alpha2A; [2]): 4.75 µM and 0.809 µM and 1.44 µM | log Ki (individual assays) (Alpha 1B): <5 | Ki (Alpha 1B; read-out: Ki): > 10 µM | Ki (Alpha 1B; [2]): > 10 µM | log Ki (individual assays) (Alpha1A): <5 | Ki (Alpha1A; read-out: Ki): > 10 µM | Ki (Alpha1A; [2]): > 10 µM | Ki (5-HT1E; read-out: Ki): 0.206 µM | Ki (5-HT1E; [2]): 0.325 µM and 0.263 µM and 0.068 µM and 0.117 µM and 0.547 µM | EC50 (hM3Dq): 0.00331 µM | antagonist activity, Gi-dissociation assay [1]: no antagonism was observed | antagonist activity, Gi-dissociation assay (D2): antagonism | Ki (hM4Di): 0.178 µM | higher binding affinity at hM4Di than at wildtype hM4 (hM4Di; hM4Di vs hM4): > 10 fold
